Experimental data: the supplement of paper PMC10307832

Experiments:
Experiment in all cases: relative viability (nuclei count vs DMSO), 5 days (fraction); higher = more cells survive
[1] = compound: CC(C)(C)c1cc(NC(=O)Nc2ccc(-c3cn4c(n3)sc3cc(OCCN5CCOCC5)ccc34)cc2)no1 [Quizartinib] + CC(C)C[C@H](NC(=O)[C@H](Cc1ccccc1)NC(=O)c1cnccn1)B(O)O [Bortezomib] (partner 0.002 µM)
Method in brief: (§1)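 Lung cancer cell lines in 1536-well plates got either a single drug or a fixed anchor-drug dose together with five library-drug doses (not always all listed) in √10 steps, by pin tool, on the day after seeding. Nuclei were counted after 5 days, and relative viability is the treated-to-vehicle ratio of nuclei counts. Values are medians of duplicate plates.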

[2] = compound: CC(C)(C)c1cc(NC(=O)Nc2ccc(-c3cn4c(n3)sc3cc(OCCN5CCOCC5)ccc34)cc2)no1 [Quizartinib] + C[C@@H](Oc1cc(-c2cnn(C3CCNCC3)c2)cnc1N)c1c(Cl)ccc(F)c1Cl [Crizotinib] (partner 1 µM)
Method in brief: as §1

[3] = compound: COCC[n+]1c2c(n(Cc3cnccn3)c1C)C(=O)c1ccccc1C2=O [YM155] + NC(=O)Nc1cc(-c2cccc(F)c2)sc1C(=O)N[C@H]1CCCNC1 [AZD7762] (partner 0.2 µM)
Method in brief: as §1

[4] = compound: COCC[n+]1c2c(n(Cc3cnccn3)c1C)C(=O)c1ccccc1C2=O [YM155] + CC(C)C[C@H](NC(=O)[C@H](Cc1ccccc1)NC(=O)c1cnccn1)B(O)O [Bortezomib] (partner 0.002 µM)
Method in brief: as §1

| Cell Line | relative viability ([1]; first compound 0.001 µM) | relative viability ([1]; first compound 0.003162 µM) | relative viability ([1]; first compound 0.01 µM) | relative viability ([1]; first compound 0.03162 µM) | relative viability ([1]; first compound 0.1 µM) | relative viability ([2]; first compound 0.001 µM) | relative viability ([2]; first compound 0.003162 µM) | relative viability ([2]; first compound 0.01 µM) | relative viability ([2]; first compound 0.03162 µM) | relative viability ([2]; first compound 0.1 µM) | relative viability ([3]; first compound 0.002 µM) | relative viability ([3]; first compound 0.006325 µM) | relative viability ([3]; first compound 0.02 µM) | relative viability ([3]; first compound 0.06325 µM) | relative viability ([4]; first compound 0.002 µM) | relative viability ([4]; first compound 0.006325 µM) | relative viability ([4]; first compound 0.02 µM) | relative viability ([4]; first compound 0.06325 µM) |
| --- | --- | --- | --- | --- | --- | --- | --- | --- | --- | --- | --- | --- | --- | --- | --- | --- | --- | --- |
| 201T | 1.09 | 1.09 | 1.1 | 1.09 | 1.12 | 1 | 1 | 1.03 | 1.02 | 1.05 | 0.592 | 0.639 | 0.561 | 0.698 | 1.04 | 1.13 | 1.09 | 1.06 |
| A-427 | 0.911 | 0.952 | 1.06 | 1 | 1.01 | 0.808 | 0.926 | 0.941 | 0.813 | 0.638 | 0.741 | 0.793 | 0.752 | 0.312 | 0.972 | 0.99 | 1.17 | 0.896 |
| ABC-1 | 0.283 | 0.232 | 0.299 | 0.28 | 0.262 | 0.922 | 0.799 | 1.22 | 0.527 | 1.3 | 0.66 | 0.84 | 0.47 | 0.195 | 0.271 | 0.4 | 0.241 | 0.209 |
| BEN | 0.583 | 0.677 | 0.703 | 0.766 | 0.83 | 0.819 | 0.769 | 0.766 | 0.722 | 0.73 | 0.538 | 0.625 | 0.769 | 0.692 | 0.665 | 0.849 | 0.852 | 0.906 |
| CAL-12T | 0.809 | 1.23 | 0.93 | 0.924 | 1.24 | 0.652 | 0.662 | 0.724 | 0.202 | 0.696 | 0.621 | 0.715 | 0.672 | 0.534 | – | 1.04 | 1.29 | 0.895 |
| ChaGo-K-1 | 0.693 | 1.16 | 1.06 | – | 1.28 | 1.1 | 1.06 | 1.23 | – | 1.19 | 0.847 | 0.822 | 0.915 | 0.821 | 1.02 | 1.01 | 0.927 | 0.956 |
| EKVX | 0.892 | 0.938 | 1.01 | 1.13 | 1 | 0.867 | 0.683 | 0.779 | 0.994 | 1.09 | 0.591 | 0.723 | 0.747 | 0.483 | 0.955 | 0.934 | 1.08 | 0.984 |
| EMC-BAC-2 | 0.986 | 1.14 | 0.985 | 0.857 | 1.05 | 0.753 | 0.713 | 0.873 | 0.758 | 0.738 | 1.04 | 1.15 | 1.07 | 0.785 | 1.03 | 1.08 | 1.04 | 1.06 |
| EPLC-272H | 0.778 | 0.836 | 0.818 | 0.69 | 0.75 | 0.826 | 0.828 | 0.739 | 0.845 | 1.01 | 0.227 | 0.296 | 0.196 | 0.253 | 0.846 | 1.04 | 0.875 | 0.862 |
| H3255 | 0.776 | 0.713 | 0.7 | 0.946 | 0.774 | 0.736 | 0.86 | 1 | 0.834 | 0.868 | 0.886 | 0.913 | 1.05 | 0.796 | 0.711 | 0.719 | 0.858 | 0.693 |
| HARA | 0.931 | 1.11 | 1.15 | 1.07 | 1.17 | 0.87 | 0.97 | 1.17 | 1.08 | 1.09 | – | 0.542 | 0.521 | 0.499 | 1.06 | 1.1 | 1.14 | 1.04 |
| HCC-15 | 0.759 | 0.992 | 0.987 | 0.984 | 0.988 | 0.798 | 0.79 | 0.817 | 0.802 | 0.81 | 0.661 | 1.28 | 1.19 | 1.17 | 0.939 | 1.02 | 0.965 | 0.953 |
| HCC-44 | 0.878 | 0.937 | 0.941 | 0.838 | 0.775 | 0.66 | 0.817 | 0.927 | 0.765 | 0.682 | 1.04 | 1.06 | 1.07 | 0.976 | 0.871 | 0.908 | 0.968 | 0.936 |
| HCC-78 | 0.435 | 0.477 | 0.546 | 0.511 | 0.448 | 0.315 | 0.345 | 0.376 | 0.319 | 0.391 | 0.612 | 0.779 | 0.755 | 0.629 | 0.536 | 0.569 | 0.552 | 0.656 |
| HCC-366 | 0.989 | 0.974 | 1.13 | 0.967 | 1.01 | 0.405 | 0.411 | 0.689 | 0.517 | 0.467 | 0.315 | 0.28 | 0.327 | 0.273 | 1.1 | 1.1 | 0.917 | 1.02 |
| HCC-827 | 0.998 | 1.11 | 1.02 | 1.06 | 1.01 | 0.934 | 0.877 | 0.961 | 0.934 | 0.879 | 0.224 | 0.293 | 0.239 | 0.241 | 1.01 | 1.04 | 1.02 | 0.912 |
| HOP-62 | 0.564 | 0.72 | 0.73 | 0.517 | 0.749 | 0.881 | 0.98 | 1.11 | 1.11 | 0.86 | 0.484 | 0.427 | 0.902 | 0.43 | 0.737 | 0.752 | 0.763 | 0.696 |
| LC-2-ad | 0.955 | 0.954 | 1.11 | 1.06 | 0.996 | 0.437 | 0.514 | 0.583 | 0.469 | 0.362 | 0.8 | 0.842 | 0.854 | 0.841 | 0.975 | 1.03 | 1.02 | 0.947 |
